The values that follow come from patent publication US6727232B2, “Nucleoside peptide antibiotics of AA-896” (Wyeth Holdings Corporation, priority 2001, dated 2004).

What all share (test): Broth dilution MIC
Format in all cases: cell-based

Experiment [1] deals with CNS GC 4537. Conditions: read-out: Antimicrobial Activity (MIC). On the procedure: (§1) The in vitro antibacterial activity of Example 1 through Example 20 is determined against a spectrum of Gram-positive and Gram-negative bacteria by a standard broth dilution method. Serial dilution of the compounds are made in Mueller-Hinton broth and inoculated with a bacterial suspension. The lowest concentration of compound that inhibited the growth of a bacterial strain after 18 hours of incubation at 35° C. is reported as the minimal inhibitory concentration (MIC) for that strain.

Experiment [2] deals with E. coli GC 4560. The note with it: Escherichia coli, GC4560, 18 h, read-out: Antimicrobial Activity (MIC). How it is done:
as §1

In experiment [3] the test system is E. coli GC 4559. Conditions: Escherichia coli, read-out: Antimicrobial Activity (MIC). How it is done: as §1
The test system of experiment [4] is CNS GC 4538. Conditions: read-out: Antimicrobial Activity (MIC). On the procedure: as §1
The subject of experiment [5] is P. aeruginosa GC 2214. The note with it: Pseudomonas aeruginosa, read-out: Antimicrobial Activity (MIC). On the procedure: as §1
The subject of experiment [6] is E. cloacae GC 3783. The note with it: Enterobacter cloacae, read-out: Antimicrobial Activity (MIC). On the procedure: as §1
Experiment [7] concerns E. coli GC 3226. The note with it: Escherichia coli, read-out: Antimicrobial Activity (MIC). How it is done:
as §1

The subject of experiment [8] is S. aureus GC 1131. The note with it: Staphylococcus aureus, read-out: Antimicrobial Activity (MIC). On the procedure: as §1
The subject of experiment [9] is S. marcescens GC 4077. The note with it: Serratia marcescens, read-out: Antimicrobial Activity (MIC). How it is done:
as §1

For experiment [10], the system named is K. pneumoniae GC 4534. Conditions: Klebsiella pneumoniae, read-out: Antimicrobial Activity (MIC). On the procedure:
as §1

Experiment [11] relates to E. coli GC 2203. Conditions: Escherichia coli, read-out: Antimicrobial Activity (MIC). How it is done:
as §1

Experiment [12] has as its system P. aeruginosa GC 4532. Conditions: Pseudomonas aeruginosa, read-out: Antimicrobial Activity (MIC). How it is done:
as §1

Experiment [13] has as its system E. faecalis GC 842. Conditions: Enterococcus faecalis, read-out: Antimicrobial Activity (MIC). On the procedure: as §1
For experiment [14], the system named is S. aureus GC 4536. Conditions: Staphylococcus aureus, read-out: Antimicrobial Activity (MIC). How it is done: as §1
The subject of experiment [15] is CNS GC 4547. The note with it: read-out: Antimicrobial Activity (MIC). How it is done:
as §1

For experiment [16], the system named is E. faecalis GC 4555. Conditions: Enterococcus faecalis, read-out: Antimicrobial Activity (MIC). How it is done: as §1
The subject of experiment [17] is P. rettgeri GC 4530. Conditions: Providencia rettgeri, read-out: Antimicrobial Activity (MIC). How it is done:
as §1

For experiment [18], the system named is M. morganii GC 4531. The note with it: Morganella morganii, read-out: Antimicrobial Activity (MIC). How it is done:
as §1

Experiment [19] concerns S. aureus GC 2216. Conditions: Staphylococcus aureus, read-out: Antimicrobial Activity (MIC). On the procedure:
as §1

Experiment [20] concerns E. faecalis GC 2242. Conditions: Enterococcus faecalis, read-out: Antimicrobial Activity (MIC). On the procedure:
as §1

[21] abbreviates: CNS GC 4537, Mueller-Hinton broth, 18 hours at 35° C.
[22] abbreviates: GC4559, E. coli GC 4559, Mueller-Hinton broth, 18 hours at 35° C.
Where [23] appears, read: CNS GC 4538, Mueller-Hinton broth, 18 hours at 35° C.
The mark [24] stands for this setting: GC2214, P. aeruginosa GC 2214, Mueller-Hinton broth, 18 hours at 35° C.
Where [25] appears, read: GC3783, E. cloacae GC 3783, Mueller-Hinton broth, 18 hours at 35° C.
[26] abbreviates: GC3226, E. coli GC 3226, Mueller-Hinton broth, 18 hours at 35° C.
Setting [27] is: GC1131, S. aureus GC 1131, Mueller-Hinton broth, 18 hours at 35° C.
Setting [28] is: GC4077, S. marcescens GC 4077, Mueller-Hinton broth, 18 hours at 35° C.
Setting [29] is: GC4534, K. pneumoniae GC 4534, Mueller-Hinton broth, 18 hours at 35° C.
[30] abbreviates: GC2203, E. coli GC 2203, Mueller-Hinton broth, 18 hours at 35° C.
Where [31] appears, read: GC4532, P. aeruginosa GC 4532, Mueller-Hinton broth, 18 hours at 35° C.
Setting [32] is: GC842, E. faecalis GC 842, Mueller-Hinton broth, 18 hours at 35° C.
[33] abbreviates: GC4536, S. aureus GC 4536, Mueller-Hinton broth, 18 hours at 35° C.
Setting [34] is: CNS GC 4547, Mueller-Hinton broth, 18 hours at 35° C.
Setting [35] is: GC4555, E. faecalis GC 4555, Mueller-Hinton broth, 18 hours at 35° C.
[36] abbreviates: GC4530, P. rettgeri GC 4530, Mueller-Hinton broth, 18 hours at 35° C.
The mark [37] stands for this setting: GC4531, M. morganii GC 4531, Mueller-Hinton broth, 18 hours at 35° C.
[38] abbreviates: GC2216, S. aureus GC 2216, Mueller-Hinton broth, 18 hours at 35° C.
Setting [39] is: GC2242, E. faecalis GC 2242, Mueller-Hinton broth, 18 hours at 35° C.

The structures appear in SMILES notation. In brackets after ≈: the same amount, converted by molar mass. Where two headings read alike, the source gives them in different places.

By MIC is commonly meant the smallest concentration in the dilution series that meets the test's criterion for growth inhibition. Regarding `CO[C@H]1C(O[C@H](C2C(=O)N(c3ccc(F)cc3)C(=O)N2CCCNC(=O)C(NC(=O)C(NC(=O)NC(C(=O)O)C(C)C)C2CCNC(=N)N2)C(O)C(C)C)[C@H]2O[C@@H](n3ccc(=O)[nH]c3=O)[C@H](O)[C@@H]2O)O[C@H](CN)[C@@H]1O` (stereo partly drawn) [Example 1, 14-[5-((R)-{[(3R,4S,5R)-5-(Aminomethyl)-4-hydroxy-3-methoxytetrahydro-2-furanyl]oxy}{(2S,3S,4R,5R)-5-[2,4-dioxo-3,4-dihydro-1 (2H)-pyrimidinyl]-3,4-dihydroxytetrahydro-2-furanyl}methyl)-3-(4-fluorophenyl)-2,4-dioxo-1-imidazolidinyl]-9-(1-hydroxy-2-methylpropyl)-6-(2-iminohexahydro-4-pyrimidinyl)-2-isopropyl-4,7,10-trioxo-3,5,8,11-tetraazatetradecan-1-oic acid], the MIC in experiment [1] (18 h) is over 32 µg/mL; in experiment [2], 64 µg/mL (≈ 60.1 µM); in [3] (GC4559, 18 h), over 32 µg/mL; in experiment [4] (18 h), 32 µg/mL (≈ 30 µM); in experiment [5] (GC2214, 18 h) it was over 32 µg/mL; in experiment [6] (GC3783, 18 h) it was over 32 µg/mL. Moreover, the minimal inhibitory concentration (MIC) in experiment [7] (GC3226, 18 h) is over 32 µg/mL; in [8] (GC1131, 18 h), over 32 µg/mL; in experiment [9] (GC4077, 18 h) it was over 32 µg/mL; in experiment [10] (GC4534, 18 h), over 32 µg/mL; in experiment [11] (GC2203, 18 h), over 32 µg/mL; in experiment [12] (GC4532, 18 h), over 32 µg/mL. For the same molecule, the MIC is over 32 µg/mL in experiment [13] (GC842, 18 h); over 32 µg/mL in experiment [14] (GC4536, 18 h); over 32 µg/mL in experiment [15] (18 h); over 32 µg/mL in [16] (GC4555, 18 h); over 32 µg/mL in experiment [17] (GC4530, 18 h); over 32 µg/mL in [18] (GC4531, 18 h). Moreover, the MIC in experiment [19] (GC2216, 18 h) was over 32 µg/mL; in experiment [20] (GC2242, 18 h), over 32 µg/mL.

Take `CCCCCN1C(=O)C([C@@H](OC2O[C@H](CN)[C@H](O)[C@H]2OC)[C@H]2O[C@@H](n3ccc(=O)[nH]c3=O)[C@H](O)[C@@H]2O)N(CCCNC(=O)C(NC(=O)C(NC(=O)NC(C(=O)O)C(C)C)C2CCNC(=N)N2)C(O)C(C)C)C1=O` (stereo partly drawn) [Example 2, 14-[5-((R)-{[(3R,4S,5R)-5-(Aminomethyl)-4-hydroxy-3-methoxytetrahydro-2furanyl]oxy}{(2S,3S,4R,5R)-5-[2,4-dioxo-3,4-dihydro-1 (2H)-pyrimidinyl]-3,4-dihydroxytetrahydro-2-furanyl}methyl)-2,4-dioxo-3-pentyl-1-imidazolidinyl]-9-(1-hydroxy-2-methylpropyl)-6-(2-iminohexahydro-4-pyrimidinyl)-2-isopropyl-4,7,10-trioxo-3,5,8,11-tetraazatetradecan-1-oic acid]: the MIC in experiment [1] (setting [21]) is over 32 µg/mL; in experiment [2], 32 µg/mL (≈ 30.7 µM); in [3] (setting [22]), over 32 µg/mL; in [4] (setting [23]), over 32 µg/mL; in experiment [5] (setting [24]), over 32 µg/mL; in [6] (setting [25]), over 32 µg/mL. For the same molecule, the MIC in experiment [7] (setting [26]), in experiment [8] (setting [27]), in [9] (setting [28]), in experiment [10] (setting [29]), in [11] (setting [30]) and in experiment [12] (setting [31]) was over 32 µg/mL throughout. Also, the MIC in experiment [13] (setting [32]), in experiment [14] (setting [33]), in experiment [15] (setting [34]), in [16] (setting [35]), in experiment [17] (setting [36]) and in [18] (setting [37]) was over 32 µg/mL in each case. In addition, the MIC in experiment [19] (setting [38]) and in [20] (setting [39]) was over 32 µg/mL in each case.

For the molecule `CCCCCCN1C(=O)C([C@@H](OC2O[C@H](CN)[C@H](O)[C@H]2OC)[C@H]2O[C@@H](n3ccc(=O)[nH]c3=O)[C@H](O)[C@@H]2O)N(CCCNC(=O)C(NC(=O)C(NC(=O)NC(C(=O)O)C(C)C)C2CCNC(=N)N2)C(O)C(C)C)C1=O` (stereo partly drawn) [Example 3, 14-[5-((R)-{[(3R,4S,5R)-5-(Aminomethyl)-4-hydroxy-3-methoxytetrahydro-2-furanyl]oxy}{(2S,3S,4R,5R)-5-[2,4-dioxo-3,4-dihydro-1 (2H)-pyrimidinyl]-3,4-dihydroxytetrahydro-2-furanyl}methyl)-3-hexyl-2,4-dioxo-1-imidazolidinyl]-9-(1-hydroxy-2-methylpropyl)-6-(2-iminohexahydro-4-pyrimidinyl)-2-isopropyl-4,7,10-trioxo-3,5,8,11-tetraazatetradecan-1-oic acid], the MIC in experiment [1] (setting [21]) is over 32 µg/mL; in experiment [2], 32 µg/mL (≈ 30.3 µM); in experiment [3] (setting [22]), over 32 µg/mL; in experiment [4] (setting [23]), over 32 µg/mL; in experiment [5] (setting [24]), over 32 µg/mL; in experiment [6] (setting [25]), over 32 µg/mL. The MIC in [7] (setting [26]), in [8] (setting [27]), in [9] (setting [28]), in [10] (setting [29]), in experiment [11] (setting [30]) and in experiment [12] (setting [31]) was over 32 µg/mL in each case. Moreover, the MIC in experiment [13] (setting [32]), in experiment [14] (setting [33]), in experiment [15] (setting [34]), in experiment [16] (setting [35]), in [17] (setting [36]) and in experiment [18] (setting [37]) was over 32 µg/mL in each case. The MIC in [19] (setting [38]) and in [20] (setting [39]) was over 32 µg/mL in each case.
